Drawing on US10947251B2, “Therapeutic compounds and methods of use thereof” (GENENTECH, INC., priority 2018, dated 2021), this text covers IC50 for 13 compounds.

Structures are written as SMILES.

In test [1] the target is T1, hNav1.7 (Homo sapiens (Human), UniProt Q15858). Description: Electrophysiological assay (EP), voltage clamp on Syncropatch 384PE. In kind it is cell-based. As to conditions: CHO cells expressing Nav1.7, holding potential −50 mV, 7.5 min compound incubation; read-out: EP_SP hNav1.7 EVO IC50. The source says:
Example 39C. Electrophysiological Assay (EP) (In Vitro Assay)
Patch voltage clamp electrophysiology allows for the direct measurement and quantification of block of voltage-gated sodium channels (NaV's), and allows the determination of the time- and voltage-dependence of block which has been interpreted as differential binding to the resting, open, and inactivated states of the sodium channel (Hille, B., Journal of General Physiology (1977), 69: 497-515).
The following voltage clamp electrophysiology studies were performed on representative compounds using cells heterologously expressing Nav1.7 or Nav1.5 channels. cDNAs for Nav1.7 (NM_002977) and Nav1.5 (AC137587) were stably expressed in Chinese Hamstr Ovary (CHO) cells and CHL (Chinese Hamster Lung) cells respectively. Sodium currents were measured in the whole-cell configuration using Syncropatch 384PE (Nanlon Technologies, Germany). 1NPC®-384 chips with custom medium resistance and single hole mode are used. Internal solution consists of (in mM): 110 […], 10 CsCl, 20 EGTA, and 10 Hepes (pH adjusted to 7.2); and external solution contains (in mM): 60 NMDG, 80 NaCl, 4 KCl, 1 MgCl2, 2 CaCl2, 2 D-Glucose monohydrate, 10 Hepes (pH adjusted to 7.4 with NaOH).
After system flushing, testing compounds are dissolved in external solution containing 0.1% Pluronic F-127. The chip is moved into the measuring head and the instrument primes the chip with external and internal solutions. 10 l cells are added to the chip from a cell hotel, and a negative pressure of −50 mBar is applied to form a seal. Following treatment with seal enhancer solution and wash-off with external solution, negative pressure of −250 mbar is applied for 1 second to achieve the whole-cell configuration, followed by three washing steps in external solution. 20 µl of compounds is added to 40 µl in each well (1:3 dilution of compounds), and after mixing, 20 l is removed so the volume is retained at 40 ul. After approximately 13 minutes recordings, 20 µl/well of 2 uM TTX, or 333 uM Tetracaine (for Nav1.5) is added to achieve full block.
For voltage protocol, an holding potential of −50 mV is applied during the whole experiment. A depolarizing step is applied to −10 mV for 10 ms, followed by a hyperpolarization step to −150 mV for 20 ms to allow channel recovery from inactivation. A second depolarizing step is applied from −150 mV to −10 mV for 10 ms, where currents were measured to derive blocking effects of compounds. Inhibition is determined based on 7.5 min of compound incubation.
In general terms: Patch clamp records ionic current or voltage across a cell membrane.

Test [2] has as its target T1, hNav1.7. The experiment in a line: Tritiated compound binding to membranes from cells heterologously expressing hNav1.7 and the β1 subunit (LBA). As to conditions: competitive binding vs [3H]compound, membranes with hNav1.7 and β1 subunit; read-out: Nav1.7 LBA EVO IC50. The method, then: Example 39A. Tritiated Compound Binding to Membranes Isolated from Cells that Heterologously Express hNav1.7 and the β1 Subunit
Preparation of membranes containing recombinantly expressed sodium channels: Frozen recombinant cell pellets were thawed on ice and diluted to 4 times the cell pellet weight with ice cold 50 mM Tris HCl, pH 7.4 buffer. The cell suspensions were homogenized on ice using a motorized glass dounce homogeniser. Homogenates were further diluted 8.4 times with ice cold 50 mM Tris HCl, pH 7.4 buffer and then centrifuged at 200×g at 4° C. for 15 min. The supernatants were collected and centrifuged at 10000×g at 4° C. for 50 min. The pellets were then re-suspended in 100 mM NaCl, 20 mM Tris HCl, pH 7.4 buffer containing 1% v/v protease inhibitors (Calbiochem) and re-homogenized on ice. The homogenized membranes were then processed through a syringe equipped with a 26 gauge needle. Protein concentrations were determined by Bradford Assay and the membranes were stored at −80° C.
Saturation experiments. A competitive NaV1.7 inhibitor having a methyl group was tritiated. Three tritiums were incorporated in place of methyl hydrogens to generate [^3H]compound. Binding of this radioligand was performed in 5 mL borosilicate glass test tubes at room temperature. Binding was initiated by adding membranes to increasing concentrations of [^3H]compound in 100 mM NaCl, 20 mM Tris HCl, pH 7.4 buffer containing 0.01% w/v bovine serum albumin (BSA) for 18 h. Non-specific binding was determined in the presence of 1 μM unlabeled compound. After 18 h, the reactants were filtered through GF/C glass fiber filters presoaked in 0.5% w/v polyethylene imine. Filters were washed with 15 mL ice cold 100 mM NaCl, 20 mM Tris HCl, pH7.4 buffer containing 0.25% BSA to separate bound from free ligand. [^3H]compound bound to filters was quantified by liquid scintillation counting.
Binding reactions were performed in 96-well polypropylene plates at room temperature for 18 h. In 360 μL, membranes were incubated with 100 pM [^3H]compound and increasing concentrations of Test Compound. Non-specific binding was defined in the presence of 1 μM unlabeled compound. Reactions were transferred and filtered through 96-well glass fiber/C filter plates presoaked with 0.5% polyethylene imine. The filtered reactions were washed 5 times with 200 μL ice cold buffer containing 0.25% BSA. Bound radioactivity was determined by liquid scintillation counting.
For saturation experiments, non-specific binding was subtracted from total binding to provide specific binding and these values were recalculated in terms of pmol ligand bound per mg protein. Saturation curves were constructed and dissociation constants were calculated using the single site ligand binding model: Beq=(Bmax*X)/(X+Kd), where Beq is the amount of ligand bound at equilibrium, Bmax is the maximum receptor density, Kd is the dissociation constant for the ligand, and X is the free ligand concentration. For competition studies percent inhibition was determined and IC50 values were calculated using a 4 parameter logistic model (% inhibition=(A+((B−A)/(1+((x/C)^D)))) using XLfit, where A and B are the maximal and minimum inhibition respectively, C is the IC50 concentration and D is the (Hill) slope.
Example 39B. Tritiated Compound Binding to Membranes Isolated from Cells that Heterologous Express hNav1.7 and the β1 Subunit
Following the procedure described in Example 39A, and making modifications as required to: centrifuge supernatants at 100000×g instead of 10000×g; re-suspend pellets in a buffer containing 0.01% BSA in addition to 100 mM NaCl, 20 mM Tris HCl, pH 7.4 buffer, and 1% v/v […]; and storing membranes at −80° C. in single use aliquots instead of pooled.
Saturation experiments: Following the procedure described in Example 243A, and making modifications as required to incubate [3H]compound for 3 hours instead of 18 hours. […]

One may read the IC50 as the concentration that gives 50% inhibition. For the compound `COc1cc(-c2cccc(C(F)(F)F)c2)cc(F)c1N1C(=O)CO[C@@H]2CN(S(=O)(=O)Nc3ccon3)CC[C@H]21` [Example 19, (4aR,8aR)-1-(3-fluoro-5-methoxy-3′-(trifluoromethyl)-[1,1′-biphenyl]-4-yl)-N-(isoxazol-3-yl)-2-oxohexahydro-1H-pyrido[3,4-b][1,4]oxazine-6(7H)-sulfonamide], the values for the IC50 in test [1] and in test [2] were 50 nM and 831 nM, respectively.

Turning to `COc1cc(-c2cccc(F)c2)c(F)cc1N1C(=O)CO[C@H]2CN(S(=O)(=O)Nc3ccon3)CC[C@@H]21` [Example 10, (4aS,8aS)-1-(2,3′-difluoro-5-methoxy-[1,1′-biphenyl]-4-yl)-N-(isoxazol-3-yl)-2-oxohexahydro-1H-pyrido[3,4-b][1,4]oxazine-6(7H)-sulfonamide], the IC50 stood at 47.8 nM in test [1] and 716 nM in test [2].

For `COc1cc(-c2cccc(C(F)F)c2)c(F)cc1N1C(=O)CO[C@@H]2CN(S(=O)(=O)Nc3ccon3)CC[C@H]21` [Example 15, (4aR,8aR)-1-(3′-(difluoromethyl)-2-fluoro-5-methoxy-[1,1′-biphenyl]-4-yl)-N-(isoxazol-3-yl)-2-oxohexahydro-1H-pyrido[3,4-b][1,4]oxazine-6(7H)-sulfonamide], the IC50 in test [1] was 46.7 nM; in test [2] it was 2000 nM.

`COc1cc(-c2cccc(C(F)(F)F)c2)c(F)cc1N1C(=O)CC[C@H]2CN(S(=O)(=O)Nc3ccon3)CCC21` (stereo in doubt) [Example 36, (4aS,8aS)-1-(2-fluoro-5-methoxy-3′-(trifluoromethyl)-[1,1′-biphenyl]-4-yl)-N-(isoxazol-3-yl)-2-oxooctahydro-1,6-naphthyridine-6(2H)-sulfonamide]: the IC50 in test [1] is 2.19 nM; in test [2], 20.7 nM.

For the compound `COc1cc(-c2cccc(C(F)(F)F)c2)c(F)cc1N1C(=O)CC[C@@H]2CN(S(=O)(=O)Nc3ccon3)CC[C@@H]21` [Example 38, (4aR,8aS)-1-(2-fluoro-5-methoxy-3′-(trifluoromethyl)-[1,1′-biphenyl]-4-yl)-N-(isoxazol-3-yl)-2-oxooctahydro-1,6-naphthyridine-6(2H)-sulfonamide], the IC50 in test [1] was 10.7 nM; in test [2], 641 nM.

In the case of `COc1cc(-c2ccc(F)c(C(F)(F)F)c2)c(F)cc1N1C(=O)CO[C@@H]2CN(S(=O)(=O)Nc3ccon3)CC[C@H]21` [Example 1, (4aR,8aR)-1-(2,4′-difluoro-5-methoxy-3′-(trifluoromethyl)-[1,1′-biphenyl]-4-yl)-N-(isoxazol-3-yl)-2-oxohexahydro-1H-pyrido[3,4-b][1,4]oxazine-6(7H)-sulfonamide], the values for the IC50 in test [1] and in test [2] were 1.12 nM and 44.3 nM, respectively.

As to `COc1cc(-c2cccc(OC(F)(F)F)c2)c(F)cc1N1CCO[C@H]2CN(S(=O)(=O)Nc3ccon3)CC[C@@H]21` [Example 32, (4aS,8aS)-1-(2-fluoro-5-methoxy-3′-(trifluoromethoxy)-[1,1′-biphenyl]-4-yl)-N-(isoxazol-3-yl)hexahydro-1H-pyrido[3,4-b][1,4]oxazine-6(7H)-sulfonamide], the IC50 was determined as 10.9 nM in test [1] and 148 nM in test [2].

`COc1cc(-c2cccc(C(F)(F)F)c2)ccc1N1C(=O)CO[C@H]2CN(S(=O)(=O)Nc3ccon3)CC[C@@H]21` [Example 18, (4aS,8aS)-N-(isoxazol-3-yl)-1-(3-methoxy-3′-(trifluoromethyl)-[1,1′-biphenyl]-4-yl)-2-oxohexahydro-1H-pyrido[3,4-b][1,4]oxazine-6(7H)-sulfonamide]: the IC50 was 5.86 nM in test [1] and 346 nM in test [2].

With `COc1nc(-c2cccc(C(F)(F)F)c2)c(F)cc1N1C(=O)CO[C@@H]2CN(S(=O)(=O)Nc3ccon3)CC[C@H]21` [Example 21, (4aR,8aR)-1-(5-fluoro-2-methoxy-6-(3-(trifluoromethyl)phenyl)pyridin-3-yl)-N-(isoxazol-3-yl)-2-oxohexahydro-1H-pyrido[3,4-b][1,4]oxazine-6(7H)-sulfonamide], the IC50 was 47.5 nM in test [1] and 2000 nM in test [2].

With `COc1cc(-c2cccc(C(F)(F)F)c2)c(F)cc1N1CCO[C@@H]2CN(S(=O)(=O)Nc3ccon3)CC[C@H]21` [Example 25, (4aR,8aR)-1-(2-fluoro-5-methoxy-3′-(trifluoromethyl)-[1,1′-biphenyl]-4-yl)-N-(isoxazol-3-yl)hexahydro-1H-pyrido[3,4-b][1,4]oxazine-6(7H)-sulfonamide], the IC50 in test [1] is 2.36 nM; in test [2], 208 nM.

Regarding `COc1cc(-c2cccc(OC(F)(F)F)c2)c(F)cc1N1CCO[C@@H]2CN(S(=O)(=O)Nc3ccon3)CC[C@H]21` [Example 31, (4aR,8aR)-1-(2-fluoro-5-methoxy-3′-(trifluoromethoxy)-[1,1′-biphenyl]-4-yl)-N-(isoxazol-3-yl)hexahydro-H-pyrido[3,4-b][1,4]oxazine-6(7H)-sulfonamide], the IC50 stood at 5.98 nM in test [1] and 128 nM in test [2].

On to `COc1cc(-c2cccc(C(F)(F)F)c2)c(F)cc1N1C(=O)CO[C@@H]2CN(S(=O)(=O)Nc3ccon3)CC[C@H]21` [Example 3, (4aR,8aR)-1-(2-fluoro-5-methoxy-3′-(trifluoromethyl)-[1,1′-biphenyl]-4-yl)-N-(isoxazol-3-yl)-2-oxohexahydro-1H-pyrido[3,4-b][1,4]oxazine-6(7H)-sulfonamide], for which the values for the IC50 in test [1] and in test [2] were 2.26 nM and 67 nM, respectively.

As for `COc1cc(-c2cccc(F)c2)c(F)cc1N1C(=O)CO[C@@H]2CN(S(=O)(=O)Nc3ccon3)CC[C@H]21` [Example 9, (4aR,8aR)-1-(2,3′-difluoro-5-methoxy-[1,1′-biphenyl]-4-yl)-N-(isoxazol-3-yl)-2-oxohexahydro-1H-pyrido[3,4-b][1,4]oxazine-6(7H)-sulfonamide], the IC50 was determined as 19.4 nM in test [1] and 2000 nM in test [2].
